Assay results: ChEMBL document CHEMBL1151928, “Identification of Hsp70 modulators through modeling of the substrate binding domain” (Bioorg Med Chem Lett, 2009)
The source made the active and inactive calls. The calls are words filed in the database; no cut-off is given here.

Columns and labels:
Hsp70 Ssa1p [1] = assay: Activation of yeast Hsp70 Ssa1p ATP hydrolysis activity at 300 uM in presence of ALLLSAPRR peptide; details: Saccharomyces cerevisiae
Hsp70 Ssa1p [2] = assay: Activation of yeast Hsp70 Ssa1p ATP hydrolysis activity at 300 uM; details: Saccharomyces cerevisiae

## CCOCCCN(C(C)=O)[C@@H](CC(C)C)C(=O)N[C@@H](CC(C)C)C(=O)NCCN1CCOCC1
Hsp70 Ssa1p [1]
  Activity: Active
Hsp70 Ssa1p [2]
  Activity: Active
